Source: patent US10208081B2, “Bile acid derivatives as FXR/TGR5 agonists and methods of use thereof” (Enanta Pharmaceuticals, Inc., priority 2014, dated 2019)

Target: human FXR (NR1H4) (Homo sapiens (Human), UniProt Q96RI1)
Assay: Human FXR (NR1H4) Assay (Gal4 promoter driven luciferase reporter, Indigo Bioscience kit IB00601)
Type: cell-based
Details: for Efficacy (%): efficacy normalized to CDCA set as 100%; for EC50: potency ranges
Source text: Assays Human FXR (NR1H4) Assay
Determination of a ligand mediated Gal4 promoter driven transactivation quantify ligand binding mediated activation of FXR. FXR Reporter Assay kit purchased from Indigo Bioscience (Catalogue number: IB00601) to determine the potency and efficacy of compound developed by Enanta that can induce FXR activation. The principle application of this reporter assay system is to quantify functional activity of human FXR. The assay utilizes non-human mammalian cells, CHO (Chinese hamster ovary) cells engineered to express human NR1H4 protein (referred to as FXR). Reporter cells also incorporate the cDNA encoding beetle luciferase which catalyzes the substrates and yields photon emission. Luminescence intensity of the reaction is quantified using a plate-reading luminometer, Envision. Reporter Cells include the luciferase reporter gene functionally linked to an FXR responsive promoter. Thus, quantifying changes in luciferase expression in the treated reporter cells provides a sensitive surrogate measure of the changes in FXR activity. […] The assay is according to the manufacturer's instructions. In brief, the assay was performed in white, 96 well plates using final volume of 100 ul containing cells with different doses of compounds. Retrieve Reporter Cells from −80° C. storage. Perform a rapid thaw of the frozen cells by transferring a 10 ml volume of 37° C. cell recovery medium into the tube of frozen cells. Recap the tube of Reporter Cells and immediately place it in a 37° C. water bath for 5-10 minutes. Retrieve the tube of Reporter Cell Suspension from the water bath. Sanitize the outside surface of the tube with a 70% alcohol swab, and then transfer it into the cell culture hood. Dispense 90 μl of cell suspension into each well of the 96-well Assay Plate. Transfer the plate into 37° C. incubator, allowing the cells adherent to the bottom of the well. Dilute compounds in Dilution Plate (DP), and administrate to cells at Assay Plate (AP). DMSO content of the samples was kept at 0.2%. Cells were incubated for additional 22 hours before luciferase activities were measured. Thirty minutes before intending to quantify FXR activity, remove Detection Substrate and Detection Buffer from the refrigerator and place them in a low-light area so that they may equilibrate to room temperature. Remove the plate's lid and discard all media contents by ejecting it into an appropriate waste container. Gently tap the inverted plate onto a clean absorbent paper towel to remove residual droplets. Cells will remain tightly adhered to well bottoms. Add 100 μl of luciferase detection reagent to each well of the assay plate. Allow the assay plate to rest at room temperature for at least 5 minutes following the addition of LDR. Set the instrument (Envision) to perform a single 5 second “plate shake” prior to reading the first assay well. Read time may be 0.5 second (500 mSec) per well.

human FXR (NR1H4), sequence (Q96RI1 whole entry, the tested form may be a part): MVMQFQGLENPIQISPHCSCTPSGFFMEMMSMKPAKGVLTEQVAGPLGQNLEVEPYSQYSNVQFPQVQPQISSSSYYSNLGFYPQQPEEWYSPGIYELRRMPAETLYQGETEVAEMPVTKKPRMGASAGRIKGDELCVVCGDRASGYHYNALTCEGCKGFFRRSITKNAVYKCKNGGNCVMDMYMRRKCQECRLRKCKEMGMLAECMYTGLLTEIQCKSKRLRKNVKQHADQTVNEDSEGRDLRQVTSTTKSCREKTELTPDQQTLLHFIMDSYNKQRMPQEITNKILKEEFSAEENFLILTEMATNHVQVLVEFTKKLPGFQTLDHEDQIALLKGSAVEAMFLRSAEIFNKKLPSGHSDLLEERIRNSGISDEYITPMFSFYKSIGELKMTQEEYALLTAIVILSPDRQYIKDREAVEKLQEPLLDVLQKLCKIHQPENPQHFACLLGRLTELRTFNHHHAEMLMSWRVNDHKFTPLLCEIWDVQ

Row | Structure (SMILES) | Efficacy (%) | EC50
1 | CC[C@H]1[C@@H](O)[C@@H]2[C@H](CC[C@]3(C)[C@@H]([C@H](C)CCNC(=O)NS(=O)(=O)NC)CC[C@@H]23)[C@@]2(C)CC[C@@H](O)C[C@@H]12 [Example 125] | 256% | 1000 to 10000 nM
2 | CC[C@H]1[C@@H](O)[C@@H]2[C@H](CC[C@]3(C)[C@@H]([C@H](C)CCNS(=O)(=O)CCC(=O)O)CC[C@@H]23)[C@@]2(C)CC[C@@H](O)C[C@@H]12 [Example 141] | 16% | 1000 to 10000 nM
3 | CC[C@H]1[C@@H](O)[C@@H]2[C@H](CC[C@]3(C)[C@@H]([C@H](C)CCNC(=O)NS(=O)(=O)c4ccc(C)cc4)CC[C@@H]23)[C@@]2(C)CC[C@@H](O)C[C@@H]12 [Example 93] | 443% | < 100 nM
4 | CC[C@H]1[C@@H](O)[C@@H]2[C@H](CC[C@]3(C)[C@@H]([C@H](C)CCNC(=O)NS(=O)(=O)N4CCCC4)CC[C@@H]23)[C@@]2(C)CC[C@@H](O)C[C@@H]12 [Example 48] | 420% | < 100 nM
5 | CC[C@H]1[C@@H](O)[C@@H]2[C@H](CC[C@]3(C)C([C@H](C)CCNS(=O)(=O)c4ccccc4)CC[C@@H]23)[C@@]2(C)CC[C@@H](O)C[C@@H]12 (some centres unmarked) [Example 130] | 146% | 1000 to 10000 nM
6 | CC[C@H]1[C@@H](O)[C@@H]2[C@H](CC[C@]3(C)[C@@H]([C@H](C)CCNC(=O)NS(=O)(=O)N4CCN(C(=O)C(C)(C)C)CC4)CC[C@@H]23)[C@@]2(C)CC[C@@H](O)C[C@@H]12 [Example 85] | 324% | 100 to 1000 nM
7 | CC[C@H]1[C@@H](O)[C@@H]2[C@H](CC[C@]3(C)[C@@H]([C@H](C)CCNC(=O)NS(=O)(=O)c4ccc(C(F)(F)F)cc4)CC[C@@H]23)[C@@]2(C)CC[C@@H](O)C[C@@H]12 [Example 14] | 295% | 100 to 1000 nM
8 | CC[C@H]1[C@@H](O)[C@@H]2[C@H](CC[C@]3(C)[C@@H]([C@H](C)CCNC(=O)NS(=O)(=O)N4CCCCCC4)CC[C@@H]23)[C@@]2(C)CC[C@@H](O)C[C@@H]12 [Example 47] | 361% | < 100 nM
9 | CC[C@H]1[C@@H](O)[C@@H]2[C@H](CC[C@]3(C)[C@@H]([C@H](C)CNS(=O)(=O)C(C)(C)C)CC[C@@H]23)[C@@]2(C)CC[C@@H](O)C[C@@H]12 [Example 143] | 6% | –
10 | CC[C@H]1[C@@H](O)[C@@H]2[C@H](CC[C@]3(C)[C@@H]([C@H](C)CCNC(=O)NS(=O)(=O)N4[C@H](C)CCC[C@@H]4C)CC[C@@H]23)[C@@]2(C)CC[C@@H](O)C[C@@H]12 [Example 96] | 387% | < 100 nM
11 | CC[C@H]1[C@@H](O)[C@@H]2[C@H](CC[C@]3(C)[C@@H]([C@H](C)CCNC(=O)NS(=O)(=O)N4CC(F)(F)C(F)(F)C4)CC[C@@H]23)[C@@]2(C)CC[C@@H](O)C[C@@H]12 [Example 81] | 315% | < 100 nM
12 | CC[C@H]1[C@@H](O)[C@@H]2[C@H](CC[C@]3(C)[C@@H]([C@H](C)CNC(=O)NS(=O)(=O)c4cccc(C(C)(C)C)c4)CC[C@@H]23)[C@@]2(C)CC[C@@H](O)C[C@@H]12 [Example 115] | 291% | 100 to 1000 nM
13 | CC[C@H]1[C@@H](O)[C@@H]2[C@H](CC[C@]3(C)[C@@H]([C@H](C)CCNC(=O)NS(=O)(=O)c4ccccc4)CC[C@@H]23)[C@@]2(C)CC[C@@H](O)C[C@@H]12 [Example 4] | 342% | < 100 nM
14 | CC[C@H]1[C@@H](O)[C@@H]2[C@H](CC[C@]3(C)[C@@H]([C@H](C)CNC(=O)NS(=O)(=O)c4ccc5ccccc5c4)CC[C@@H]23)[C@@]2(C)CC[C@@H](O)C[C@@H]12 [Example 32] | 309% | < 100 nM
15 | CC[C@H]1[C@@H](O)[C@@H]2[C@H](CC[C@]3(C)[C@@H]([C@H](C)CNC(=O)NS(=O)(=O)c4ccc(N5CCCCC5)cc4)CC[C@@H]23)[C@@]2(C)CC[C@@H](O)C[C@@H]12 [Example 118] | 267% | < 100 nM
16 | CC[C@H]1[C@@H](O)[C@@H]2[C@H](CC[C@]3(C)[C@@H]([C@H](C)CCNC(=O)NS(=O)(=O)C4CCCCC4)CC[C@@H]23)[C@@]2(C)CC[C@@H](O)C[C@@H]12 [Example 22] | 477% | < 100 nM
17 | CC[C@H]1[C@@H](O)[C@@H]2[C@H](CC[C@]3(C)[C@@H]([C@H](C)CCNC(=O)NC(C)C)CC[C@@H]23)[C@@]2(C)CC[C@@H](O)C[C@@H]12 [Example 7] | 259% | 1000 to 10000 nM
18 | CC[C@H]1[C@@H](O)[C@@H]2[C@H](CC[C@]3(C)[C@@H]([C@H](C)CCNC(=O)NS(=O)(=O)c4ccc(C(C)(C)CO)cc4)CC[C@@H]23)[C@@]2(C)CC[C@@H](O)C[C@@H]12 [Example 69] | 490% | < 100 nM
19 | CC[C@H]1[C@@H](O)[C@@H]2[C@H](CC[C@]3(C)[C@@H]([C@H](C)CCNC(=O)NS(=O)(=O)c4c(F)c(F)c(F)c(F)c4F)CC[C@@H]23)[C@@]2(C)CC[C@@H](O)C[C@@H]12 [Example 92] | 325% | 1000 to 10000 nM
20 | CC[C@H]1[C@@H](O)[C@@H]2[C@H](CC[C@]3(C)[C@@H]([C@H](C)CCNS(=O)(=O)C(C)(C)C(=O)O)CC[C@@H]23)[C@@]2(C)CC[C@@H](O)C[C@@H]12 [Example 138] | 2% | 1000 to 10000 nM
21 | CC[C@H]1[C@@H](O)[C@@H]2[C@H](CC[C@]3(C)[C@@H]([C@H](C)CCNC(=O)NS(=O)(=O)C4(C)CC4)CC[C@@H]23)[C@@]2(C)CC[C@@H](O)C[C@@H]12 [Example 46] | 315% | < 100 nM
22 | CC[C@H]1[C@@H](O)[C@@H]2[C@H](CC[C@]3(C)[C@@H]([C@H](C)CCCNC(=O)NS(=O)(=O)C4CC4)CC[C@@H]23)[C@@]2(C)CC[C@@H](O)C[C@@H]12 [Example 20] | 334% | 100 to 1000 nM
23 | CC[C@H]1[C@@H](O)[C@@H]2[C@H](CC[C@]3(C)[C@@H]([C@H](C)CCNC(=O)NS(=O)(=O)N4CCC(C(C)(C)C)CC4)CC[C@@H]23)[C@@]2(C)CC[C@@H](O)C[C@@H]12 [Example 67] | 351% | < 100 nM
24 | CC[C@H]1[C@@H](O)[C@@H]2[C@H](CC[C@]3(C)[C@@H]([C@H](C)CCNS(=O)(=O)C(C)(C)C)CC[C@@H]23)[C@@]2(C)CC[C@@H](O)C[C@@H]12 [Example 139] | 138% | 1000 to 10000 nM
25 | CC[C@H]1[C@@H](O)[C@@H]2[C@H](CC[C@]3(C)[C@@H]([C@H](C)CCNC(=O)NS(=O)(=O)c4cc(F)cc(OC)c4)CC[C@@H]23)[C@@]2(C)CC[C@@H](O)C[C@@H]12 [Example 103] | 328% | < 100 nM
26 | CC[C@H]1[C@@H](O)[C@@H]2[C@H](CC[C@]3(C)[C@@H]([C@H](C)CCNC(=O)NS(=O)(=O)c4ccc(C)c(F)c4)CC[C@@H]23)[C@@]2(C)CC[C@@H](O)C[C@@H]12 [Example 16] | 265% | < 100 nM
27 | CC[C@H]1[C@@H](O)[C@@H]2[C@H](CC[C@]3(C)[C@@H]([C@H](C)CCNC(=O)NS(=O)(=O)N(C(C)C)C(C)C)CC[C@@H]23)[C@@]2(C)CC[C@@H](O)C[C@@H]12 [Example 52] | 281% | 100 to 1000 nM
28 | CC[C@H]1[C@@H](O)[C@@H]2[C@H](CC[C@]3(C)[C@@H]([C@H](C)CCCNS(=O)(=O)[O-])CC[C@@H]23)[C@@]2(C)CC[C@@H](O)C[C@@H]12.[Na+] [Example 135] | 4% | 1000 to 10000 nM
29 | CC[C@H]1[C@@H](O)[C@@H]2[C@H](CC[C@]3(C)[C@@H]([C@H](C)CCNC(=O)NS(=O)(=O)C4CCC(F)(F)CC4)CC[C@@H]23)[C@@]2(C)CC[C@@H](O)C[C@@H]12 [Example 89] | 351% | < 100 nM
30 | CC[C@H]1[C@@H](O)[C@@H]2[C@H](CC[C@]3(C)[C@@H]([C@H](C)CCNC(=O)NS(=O)(=O)c4ccc5c(c4)OCCO5)CC[C@@H]23)[C@@]2(C)CC[C@@H](O)C[C@@H]12 [Example 58] | 307% | < 100 nM
